Results on 45 compounds are retold here after patent US11780845B2 (Relay Therapeutics, Inc., priority 2019, dated 2023).

The subject of one assay is SNU16 cells. As to the kind of experiment: SNU16 Cancer Cell Line Proliferation Assay. It is filed as cell-based. As to conditions: SNU-16 cells. The method, then:
Compounds of the present invention were also tested in a SNU16 Cancer Cell Line Proliferation Assay, Test compounds were prepared in a 10 mM DMSO stock solution. 45 uL of stock solution was transferred to a 384 well plate, and a 3-fold 11-point dolution was performed. SNU16 cells in a 384 well cell culture plate were seeded and incubated at 37 degrees for 24 hours. 40 nL of each concentration of compound was transferred from the compound plate to a corresponding well in the cell culture plate by Echo550 liquid handler. The plates were incubated for 96 hours, then equilibrated to room temperature for 15 minutes. 20 uL of CellTiter Glo reagent is added into each well, then the plate was shaken gently for 30 minutes at room temperature. Chemiluminescence was then read on an EnVision reader.

For assay [1], the target named is T1, FGFR2 (Homo sapiens (Human), UniProt P21802). Description: FGFR2 Biochemical Caliper Assay. The method, then: Compounds of the present invention were also tested in a FGFR2 Biochemical Caliper Assay. Compounds were prepared in 10 mM DMSO solution and serially diluted into 11 concentrations by 3-fold dilution. […] 5 uL of ATP solution (100 uM) was added to start the reaction and the plate was incubated for 90 minutes, then 70 uL of stopping buffer (0.5M EDTA) was added to terminate the reaction. Each well was analyzed using EZ reader.
T1 sequence (P21802 22-821): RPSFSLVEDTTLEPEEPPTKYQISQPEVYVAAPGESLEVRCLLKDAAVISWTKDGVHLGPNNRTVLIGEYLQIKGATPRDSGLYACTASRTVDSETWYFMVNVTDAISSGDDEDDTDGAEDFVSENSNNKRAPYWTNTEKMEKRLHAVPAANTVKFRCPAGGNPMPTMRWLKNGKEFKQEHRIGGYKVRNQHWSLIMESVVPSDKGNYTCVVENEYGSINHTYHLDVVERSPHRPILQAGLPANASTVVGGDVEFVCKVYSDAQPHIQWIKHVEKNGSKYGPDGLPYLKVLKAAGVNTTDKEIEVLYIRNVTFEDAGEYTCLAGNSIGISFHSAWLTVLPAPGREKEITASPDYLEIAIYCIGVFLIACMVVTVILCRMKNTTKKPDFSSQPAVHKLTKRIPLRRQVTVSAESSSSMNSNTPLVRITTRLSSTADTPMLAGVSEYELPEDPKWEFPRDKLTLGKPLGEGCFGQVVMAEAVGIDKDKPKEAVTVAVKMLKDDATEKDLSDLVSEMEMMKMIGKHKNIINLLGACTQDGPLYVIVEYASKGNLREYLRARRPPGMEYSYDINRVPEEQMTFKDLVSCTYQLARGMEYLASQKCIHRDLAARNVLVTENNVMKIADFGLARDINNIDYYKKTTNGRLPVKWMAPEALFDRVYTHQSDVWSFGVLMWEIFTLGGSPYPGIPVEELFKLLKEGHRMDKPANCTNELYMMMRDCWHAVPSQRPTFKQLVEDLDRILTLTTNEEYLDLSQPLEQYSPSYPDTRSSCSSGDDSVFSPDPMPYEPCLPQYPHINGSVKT

The subject of another assay is SNU-16. Description: Cell SNU-16 assay. It is filed as cell-based.
Assay [2] addresses T1, FGFR2. Description: Biochemical FGFR2 Caliper assay.
Setting [3] is: Homo sapiens, SNU-16, SNU-16 cells.

SMILES strings stand for the structures.

For orientation: IC50 means the concentration that gives 50% inhibition. Consider `C=C(CN(C)C)C(=O)Nc1ccc(-c2c(-c3ccc(Oc4cccc(C)n4)cc3)c3c(N)ncnc3n2C)cc1` [Example 485], for which the IC50 was no more than 0.1 µM in the assay on SNU16 cells (Homo sapiens) and less than 0.1 µM against FGFR2 [1].
For the compound `C=C(C)C(=O)Nc1ccc(-c2c(-c3ccc(C(=O)NC4CCC4)cc3)c3c(N)ncnc3n2C)cc1` [Example 265], the figures for the half-inhibitory concentration (IC50) in the assay on SNU16 cells (Homo sapiens) and against FGFR2 [1] were no more than 0.1 µM and less than 0.1 µM, respectively.
For `C=C(C)C(=O)Nc1ccc(-c2c(-c3ccc(Oc4nccc(C)n4)c(F)c3)c3c(N)ncnc3n2C)cc1` [Example 343], the IC50 with SNU16 cells (Homo sapiens) is no more than 0.1 µM.
As to `C=C(C)C(=O)Nc1ccc(-c2c(-c3ccc(Oc4nccc(C)n4)c(F)c3)c3c(N)ncnc3n2C)c(C)c1` [Example 495], in the assay on SNU16 cells, the concentration for half-maximal inhibition (IC50) was no more than 0.1 µM.
With `CC#CC(=O)Nc1ccc(-c2c(-c3ccc(Oc4cccc(C)n4)c(OC)c3)c3c(N)ncnc3n2C)cc1` [Example 18], the IC50 in the assay on SNU16 cells (Homo sapiens) was no more than 0.1 µM.
In turn, `C=C(C)C(=O)Nc1ccc(-c2c(-c3ccc(Oc4nccc(C)n4)c(F)c3)c3c(N)ncnc3n2C)c(C)c1` [Example 531] displayed an IC50 with SNU16 cells of no more than 0.1 µM.
The same measure, in the same setting: to `C=C(C)C(=O)Nc1ccc(-c2c(-c3ccc(Oc4nccc(C)n4)c(F)c3)c3c(N)ncnc3n2C)c(C(F)F)c1` [Example 527] belongs no more than 0.1 µM.
`C=CC(=O)N1CCC(c2c(-c3ccc(N4CCN(C(C)C)CC4)cc3)c3c(N)ncnc3n2C)C1` (stereo not shown) [Example 770] yielded an IC50 with SNU16 cells (Homo sapiens) of 1 to 100 µM.
In the assay with SNU16 cells, `C=C(C)C(=O)Nc1ccc(-c2c(-c3ccc(Oc4nccc(C)n4)c(F)c3)c3c(N)ncnc3n2C)c(CO)c1` [Example 535] showed an IC50 of no more than 0.1 µM.
Regarding `C#Cc1cc(OC)c(-c2c(-c3ccc(Oc4nccc(C)n4)c(F)c3)c3c(C)ncnc3n2C)cn1` [Example 1418], the IC50 is no more than 0.1 µM in the assay on SNU-16 (setting [3]) and less than 0.1 µM against FGFR2 [2].
Consider `C=CC(=O)N1CCC(c2cn3ncnc(N)c3c2-c2ccc(Oc3cccc(C)n3)cc2)C1` (stereo not shown) [Example 828], for which the IC50 in the assay with SNU-16 (setting [3]) lay within 0.25 to 1 µM; against FGFR2 [2] it was 1 to 100 µM.
For `C#Cc1cc(C)c(-c2cn3ncnc(N)c3c2C2=CC[C@H](C(=O)N3CCC[C@H]3C)CC2)cn1` [Example 1387] the same measures were 1 to 100 µM and 1 to 100 µM.
On the same counts, the results for `C=C(C)C(=O)Nc1ccc(-c2c(C3=CC[C@@H](C(=O)N4CCCC45COC5)CC3)c3c(N)ncnc3n2C)cc1` (single isomer, unassigned) [Example 914] are no more than 0.1 µM and less than 0.1 µM.
Regarding `C=C(C)C(=O)Nc1ccc(-c2c(-c3cnc(-c4ccccc4C)s3)c3c(N)ncnc3n2C)cc1` [Example 1422], the IC50 in the assay on SNU-16 (setting [3]) and against FGFR2 [2] was 0.25 to 1 µM throughout.
As for `C=CC(=O)Nc1ccc(-c2c(-c3ccc(Oc4cccc(C)n4)cc3)c3c(N)ncnc3n2C)cc1` [Example 1050], the IC50 in the assay with SNU-16 (setting [3]) and against FGFR2 [2] was 0.25 to 1 µM each time.
As to `C#C[C@@H]1CCCN1C(=O)[C@@H]1CC=C(c2c(-c3ccc(NC(=O)C(=C)C)cc3)n(C)c3ncnc(N)c23)CC1` (single isomer, unassigned) [Example 951], the IC50 lay in the range of 0.1 to 0.25 µM in the assay on SNU-16 (setting [3]) and 0.25 to 1 µM against FGFR2 [2].
With `C#Cc1cc(OC)c(-c2c(C3=CC[C@@H](C(=O)N4CCC[C@H]4C#N)CC3)c3c(C)ncnc3n2C)cn1` [Example 1467], the IC50 in the assay on SNU-16 (setting [3]) is no more than 0.1 µM; at FGFR2 [2], 0.25 to 1 µM.
`C=CC(=O)Nc1ccc(-c2c(-c3ccc(Oc4nccc(C)n4)c(C)c3)c3c(N)ncnc3n2C)c(C)c1` [Example 1083]: the IC50 in the assay with SNU-16 (setting [3]) lay within 1 to 100 µM; at FGFR2 [2] it was 0.25 to 1 µM.
As to `CC1=CCN(c2ccc(-c3c(-c4ccc(Oc5nccc(C)n5)cc4)c4c(N)ncnc4n3C)cc2)C1=O` [Example 924], the IC50 in the assay with SNU-16 (SNU-16 cells) and against FGFR2 [2] was 1 to 100 µM throughout.
Take `C=CC(=O)Nc1ccc(-c2cn3ncnc(N)c3c2-c2ccc(C(=O)NCC(F)(F)F)cc2)cc1` [Example 838]: the IC50 in the assay with SNU-16 (setting [3]) is no more than 0.1 µM; on FGFR2 [2], less than 0.1 µM.
Turning to `C=CC(=O)Nc1ccc(-c2c(-c3ccc(Oc4cccc(C)n4)c(F)c3)c3c(N)ncnc3n2C)cc1` [Example 1053], the half-maximal inhibitory concentration (IC50) in the assay with SNU-16 (setting [3]) is 0.25 to 1 µM; against FGFR2 [2] it was 0.1 to 0.25 µM.
For `C=C(C)C(=O)Nc1ccc(-c2c(-c3ccc(OCc4ccccc4)c(F)c3)c3c(N)ncnc3n2C)cc1` [Example 1435] the same measures were 1 to 100 µM and 1 to 100 µM.
For `C=C(C)C(=O)Nc1ccc(-c2c(C3=CC[C@H](C(=O)N4CCCC4)OC3)c3c(N)ncnc3n2C)cc1` [Example 1014] the same measures were no more than 0.1 µM and less than 0.1 µM.
`C=C(C)C(=O)Nc1cc(C)c(-c2c(C3=CC[C@H](C(=O)N4CCCC4)CC3)c3c(N)ncnc3n2C)c(C)c1` (single isomer, unassigned) [Example 1486]: the IC50 with SNU-16 (setting [3]) and against FGFR2 [2] was 1 to 100 µM throughout.
On to `C=CC(=O)N[C@@H]1Cc2ccc(-c3c(-c4ccc(Oc5nccc(C)n5)cc4)c4c(N)ncnc4n3C)cc2C1` (single isomer, unassigned) [Example 927], for which the IC50 with SNU-16 (setting [3]) and at FGFR2 [2] was 1 to 100 µM each time.
On to `C=CC(=O)NC1CC=C(c2c(-c3ccc(Oc4nccc(C)n4)c(F)c3)c3c(N)ncnc3n2C)CC1` (stereo not shown) [Example 1370], for which the half-maximal inhibitory concentration (IC50) in the assay on SNU-16 (setting [3]) and on FGFR2 [2] was 0.1 to 0.25 µM in each case.
For the compound `C=C(C)C(=O)Nc1ccc(-c2c(C3=CC[C@H](C(=O)N4CCC[C@@]45CCOC5)CC3)c3c(N)ncnc3n2C)cc1` (single isomer, unassigned) [Example 955], the IC50 lay within 0.25 to 1 µM in the assay on SNU-16 (SNU-16 cells) and 1 to 100 µM against FGFR2 [2].
For `C=C(C)C(=O)Nc1ccc(-c2c(C3=CC[C@H](C(=O)N4CC5CC4C5)CC3)c3c(N)ncnc3n2C)cc1` [Example 997], the half-inhibitory concentration (IC50) in the assay with SNU-16 (setting [3]) lay in the range of 0.25 to 1 µM; at FGFR2 [2] it was 1 to 100 µM.
On the same counts, the results for `C=C(C)C(=O)Nc1ccc(-c2c(-c3ccc(Oc4nccc(C)n4)cc3)c3c(N)ncnc3n2C)c(Cl)c1F` [Example 1089] are 1 to 100 µM and 1 to 100 µM.
As for `C=C(C)C(=O)Nc1ccc(-c2c(-c3ccc(Oc4nccc(C)n4)c(F)c3)c3c(N)ncnc3n2C)c(C(F)F)c1` [Example 496], the half-maximal inhibitory concentration (IC50) with SNU16 cells was no more than 0.1 µM.
`C#Cc1ncc(-c2c(-c3ccc(Oc4nccc(C)n4)cc3)c3c(N)ncnc3n2C)cn1` [Example 1000]: the IC50 fell in the range of 0.25 to 1 µM in the assay with SNU-16 (SNU-16 cells) and 1 to 100 µM against FGFR2 [2].
As to `C=CC(=O)N1CCCc2c1nc(-c1c(-c3ccc(Oc4nccc(C)n4)cc3)c3c(N)ncnc3n1C)n2C` [Example 1045], the IC50 with SNU-16 (setting [3]) and on FGFR2 [2] was 1 to 100 µM each time.
In the case of `C#Cc1cc(OC)c(-c2c(-c3ccc(Oc4nccc(C)n4)cn3)c3c(N)ncnc3n2C)cn1` [Example 1491], the IC50 in the assay on SNU-16 (setting [3]) is no more than 0.1 µM; on FGFR2 [2], less than 0.1 µM.
For `C#Cc1ccc(-c2c(-c3ccc(Oc4nccc(C)n4)cc3)c3c(N)ncnc3n2C)cn1` [Example 1067] the same measures were no more than 0.1 µM and less than 0.1 µM.
For `C#Cc1cc(C)c(-c2c(C3=CC[C@H](C(=O)N4CCCC45COC5)CC3)c3c(N)ncnc3n2C)cn1` (single isomer, unassigned) [Example 1238] the same measures were 0.1 to 0.25 µM and 0.25 to 1 µM.
Consider `C#Cc1ncc(-c2c(-c3ccc(Oc4nccc(C)n4)c(F)c3)c3c(N)ncnc3n2C)c(C)n1` [Example 1153], for which the IC50 with SNU-16 (setting [3]) is 0.1 to 0.25 µM; on FGFR2 [2] it was less than 0.1 µM.
Turning to `C=C(C)C(=O)Nc1ccc(-c2c(-c3ccc4c(c3)CO[C@@H]4c3cccc(C)n3)c3c(N)ncnc3n2C)cc1` (single isomer, unassigned) [Example 894], the IC50 in the assay on SNU-16 (setting [3]) and against FGFR2 [2] was 0.25 to 1 µM in each case.
`C=C(C)C(=O)Nc1cc(C)c(-c2c(C3=CC[C@@H](C(=O)N4CCCC4)CC3)c3c(N)ncnc3n2C)c(C)c1` (single isomer, unassigned) [Example 1484]: the IC50 with SNU-16 (setting [3]) and at FGFR2 [2] was 1 to 100 µM each time.
With `C#Cc1cc(C)c(-c2c(C3=CC[C@H](C(=O)N4CCCC45CC5)CC3)c3c(N)ncnc3n2C)cn1` [Example 1325], the IC50 in the assay on SNU-16 (setting [3]) and against FGFR2 [2] was 0.25 to 1 µM in each case.
`C=C(C)C(=O)Nc1cc(-c2c(-c3ccc(Oc4nccc(C)n4)cc3)c3c(N)ncnc3n2C)n(C)n1` [Example 1065]: the IC50 in the assay on SNU-16 (setting [3]) and at FGFR2 [2] was 0.25 to 1 µM throughout.
With `C=CC(=O)Nc1ccc(-c2c(-c3ccc(Oc4nccc(C)n4)c(F)c3)c3c(C)ncnc3n2C)c(Cl)c1` [Example 1094], the figures for the IC50 in the assay with SNU-16 (setting [3]) and against FGFR2 [2] were no more than 0.1 µM and less than 0.1 µM, respectively.
On to `C=C(C)C(=O)Nc1ccc(-c2c(-c3ccc(C(=O)N[C@H]4C[C@H](F)C4)c(OC(F)F)c3)c3c(N)ncnc3n2C)cc1` [Example 970], for which the IC50 in the assay with SNU-16 (setting [3]) and at FGFR2 [2] was 1 to 100 µM throughout.
Regarding `C=C(C)C(=O)Nc1ccc(-c2c(C3=CC[C@@H](C(=O)N4CCC5(CC5)C4)CC3)c3c(N)ncnc3n2C)cc1` (single isomer, unassigned) [Example 891], the IC50 in the assay with SNU-16 (setting [3]) and against FGFR2 [2] was 1 to 100 µM each time.
As for `C=C(C)C(=O)Nc1ccc(-c2c(C3=CC[C@@H](C(=O)N4CCCC4)OC3)c3c(N)ncnc3n2C)cc1` [Example 1015], the IC50 in the assay with SNU-16 (setting [3]) and against FGFR2 [2] was 1 to 100 µM in each case.
Take `C=C(C)C(=O)Nc1ccc(-c2c(C3=CC[C@H](S(=O)(=O)N4CCCC4)CC3)c3c(N)ncnc3n2C)c(C)c1` [Example 1116]: the IC50 with SNU-16 (setting [3]) was no more than 0.1 µM; against FGFR2 [2], 0.1 to 0.25 µM.
